# Experimental data taken from ChEMBL document CHEMBL1201862, “PubChem BioAssay data set” (2004).
# “And” between values parts separate entries of the source, which are not always exact repeats. Identical values can stand only once.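 All cell lines were grown in 96-well plates and treated with compound for 48 hours. Abbreviation: GI50, concentration required for 50% inhibition of growth.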 The source made the active and inactive calls. Cut-off read from the data, not from the text of the source: active = GI50 up to about 1.1 µM and inactive = higher.
# Assays:
# Test in all cases: growth of human tumour cells (NCI), 48 h
# HT-29 = system: HT-29
# UO-31 = system: UO-31
# COLO 205 = system: COLO 205
# Malme-3M = system: Malme-3M
# DU-145 = system: DU-145
# K562 = system: K562
# A549 = system: A549
# HCT-116 = system: HCT-116
# HL-60 = system: HL-60
# MDA-MB-231 = system: MDA-MB-231
# SNB-19 = system: SNB-19
# SF-295 = system: SF-295
# SK-MEL-5 = system: SK-MEL-5
# RPMI-8226 = system: RPMI-8226
# U-251 = system: U-251
# Hs-578T = system: Hs-578T
# SN12C = system: SN12C
# OVCAR-5 = system: OVCAR-5
# PC-3 = system: PC-3
# SNB-75 = system: SNB-75
# A498 = system: A498
# UACC-62 = system: UACC-62
# OVCAR-8 = system: OVCAR-8
# MOLT-4 = system: MOLT-4
# M14 = system: M14
# LOX IMVI = system: LOX IMVI
# RXF 393 = system: RXF 393
# SW-620 = system: SW-620
# SK-MEL-2 = system: SK-MEL-2
# EKVX = system: EKVX
# SF-268 = system: SF-268
# CAKI-1 = system: CAKI-1
# SK-MEL-28 = system: SK-MEL-28
# NCI-H23 = system: NCI-H23
# KM12 = system: KM12
# 786-0 = system: 786-0
# UACC-257 = system: UACC-257
# SR = system: SR
# NCI-H226 = system: NCI-H226
# ACHN = system: ACHN
# MDA-N = system: MDA-N
# MCF7 = system: MCF7
# MDA-MB-435 = system: MDA-MB-435
# SF-539 = system: SF-539
# NCI-H522 = system: NCI-H522
# HOP-62 = system: HOP-62
# IGROV-1 = system: IGROV-1
# T47D = system: T47D
# SK-OV-3 = system: SK-OV-3
# NCI/ADR-RES = system: NCI/ADR-RES
# CCRF-CEM = system: CCRF-CEM
# NCI-H460 = system: NCI-H460
# OVCAR-3 = system: OVCAR-3
# HCC 2998 = system: HCC 2998
smiles,measurement,setting,value
O=C(Nc1cccc([N+](=O)[O-])c1)c1nnn(-c2cccc([N+](=O)[O-])c2)c1O,GI50,HT-29,> 100 µM (inactive)
same,GI50,UO-31,67.5 µM (inactive)
same,GI50,COLO 205,> 100 µM (inactive)
same,GI50,Malme-3M,> 100 µM (inactive)
same,GI50,DU-145,> 100 µM (inactive)
same,GI50,K562,> 100 µM (inactive)
same,GI50,A549,> 100 µM (inactive)
same,GI50,HCT-116,> 100 µM (inactive)
same,GI50,HL-60,> 100 µM (inactive)
same,GI50,MDA-MB-231,> 100 µM (inactive)
same,GI50,SNB-19,> 100 µM (inactive)
same,GI50,SF-295,> 100 µM (inactive)
same,GI50,SK-MEL-5,> 100 µM (inactive)
same,GI50,RPMI-8226,> 100 µM (inactive)
same,GI50,U-251,> 100 µM (inactive)
same,GI50,Hs-578T,> 100 µM (inactive)
same,GI50,SN12C,> 100 µM (inactive)
same,GI50,OVCAR-5,> 100 µM (inactive)
same,GI50,PC-3,> 100 µM (inactive)
same,GI50,SNB-75,> 100 µM (inactive)
same,GI50,A498,> 100 µM (inactive)
same,GI50,UACC-62,> 100 µM (inactive)
same,GI50,OVCAR-8,> 100 µM (inactive)
same,GI50,MOLT-4,> 100 µM (inactive)
same,GI50,M14,> 100 µM (inactive)
same,GI50,LOX IMVI,> 100 µM (inactive)
same,GI50,RXF 393,> 100 µM (inactive)
same,GI50,SW-620,> 100 µM (inactive)
same,GI50,SK-MEL-2,> 100 µM (inactive)
same,GI50,EKVX,> 100 µM (inactive)
same,GI50,SF-268,> 100 µM (inactive)
same,GI50,CAKI-1,> 100 µM (inactive)
same,GI50,SK-MEL-28,> 100 µM (inactive)
same,GI50,NCI-H23,> 100 µM (inactive)
same,GI50,KM12,> 100 µM (inactive)
same,GI50,786-0,> 100 µM (inactive)
same,GI50,UACC-257,> 100 µM (inactive)
same,GI50,SR,> 100 µM (inactive)
same,GI50,NCI-H226,> 100 µM (inactive)
same,GI50,ACHN,> 100 µM (inactive)
same,GI50,MDA-N,> 100 µM (inactive)
same,GI50,MCF7,> 100 µM (inactive)
same,GI50,MDA-MB-435,> 100 µM (inactive)
same,GI50,SF-539,32.2 nM (active)
same,GI50,NCI-H522,> 100 µM (inactive)
same,GI50,HOP-62,> 100 µM (inactive)
same,GI50,IGROV-1,> 100 µM (inactive)
same,GI50,T47D,> 100 µM (inactive)
same,GI50,SK-OV-3,> 100 µM (inactive)
same,GI50,NCI/ADR-RES,> 100 µM (inactive)
same,GI50,CCRF-CEM,> 100 µM (inactive)
Cc1cc(O)c2c(c1)C(=O)C=CC2=O [RAMENTACEONE],GI50,HT-29,7.05 µM (inactive) and 5.74 µM (inactive)
same,GI50,UO-31,4.69 µM (inactive) and 2.91 µM (inactive)
same,GI50,COLO 205,3.92 µM (inactive) and 2.74 µM (inactive)
same,GI50,DU-145,19.7 µM (inactive) and 16.4 µM (inactive)
same,GI50,A549,25.4 µM (inactive) and 19.1 µM (inactive)
same,GI50,HCT-116,4.34 µM (inactive) and 3.72 µM (inactive)
same,GI50,MDA-MB-231,5.06 µM (inactive) and 9.31 µM (inactive)
same,GI50,SNB-19,20.6 µM (inactive) and 17.1 µM (inactive)
same,GI50,SF-295,16.5 µM (inactive) and 17.4 µM (inactive)
same,GI50,Hs-578T,19.4 µM (inactive) and 15.7 µM (inactive)
same,GI50,SN12C,7.76 µM (inactive) and 12.1 µM (inactive)
same,GI50,OVCAR-5,19.4 µM (inactive) and 18 µM (inactive)
same,GI50,PC-3,11.2 µM (inactive) and 17.7 µM (inactive)
same,GI50,SNB-75,15.5 µM (inactive) and 16.6 µM (inactive)
same,GI50,A498,22 µM (inactive) and 31.4 µM (inactive)
same,GI50,UACC-62,4.72 µM (inactive) and 7.38 µM (inactive)
same,GI50,MOLT-4,424 nM (active) and 298 nM (active)
same,GI50,M14,6.68 µM (inactive) and 8.77 µM (inactive)
same,GI50,LOX IMVI,3.04 µM (inactive) and 5.55 µM (inactive)
same,GI50,RXF 393,4.41 µM (inactive) and 2.7 µM (inactive)
same,GI50,SK-MEL-2,14.9 µM (inactive) and 19.1 µM (inactive)
same,GI50,SF-268,17.7 µM (inactive) and 10.4 µM (inactive)
same,GI50,NCI-H460,19.3 µM (inactive) and 16.3 µM (inactive)
same,GI50,NCI-H23,8.39 µM (inactive) and 12.4 µM (inactive)
same,GI50,KM12,14.1 µM (inactive) and 16.1 µM (inactive)
same,GI50,OVCAR-3,1.66 µM (inactive) and 2.27 µM (inactive)
same,GI50,UACC-257,5.25 µM (inactive) and 4.05 µM (inactive)
same,GI50,HCC 2998,11.2 µM (inactive) and 15.6 µM (inactive)
same,GI50,NCI-H226,18.6 µM (inactive) and 17.8 µM (inactive)
same,GI50,MDA-N,2.21 µM (inactive) and 3.56 µM (inactive)
same,GI50,MCF7,7.05 µM (inactive) and 4.79 µM (inactive)
same,GI50,SF-539,16.9 µM (inactive) and 14.9 µM (inactive)
same,GI50,HOP-62,19.5 µM (inactive) and 21 µM (inactive)
same,GI50,IGROV-1,14.1 µM (inactive) and 9.38 µM (inactive)
same,GI50,T47D,2.65 µM (inactive) and 3.11 µM (inactive)
same,GI50,SK-OV-3,27.9 µM (inactive) and 28 µM (inactive)
same,GI50,NCI/ADR-RES,8.15 µM (inactive) and 15.9 µM (inactive)
same,GI50,CCRF-CEM,121 nM (active) and 212 nM (active)
